Data taken from PubChem BioAssay AID262 (DTP/NCI, 2004).
Several values for one entry are separate records, joined by “and”; a condition that tells them apart may be missing. Equal entries are not always repeated.

Test system: LX-1 lung xenograft sc, nude mice, tumor weight
Assay: NCI In Vivo Anticancer Drug Screen. Data for tumor model Human Lung LX-1 Xenograft (subcutaneous) in NU/NU Swiss (nude) mice
Settings: endpoint: optimum tumor weight change, schedule: Q04DX003 (ip), higher = larger tumour
Protocol: The antitumor activity of compounds was measured in mice bearing transplantable tumors. Survival or tumor size were measured and the results are expressed as the measurement made in the treated group (T) divided by the measurement made in the vehicle treated control group (C). The tumor model used in this assay is Human Lung LX-1 Xenograft (subcutaneous) in NU/NU Swiss (nude) mice

[1] = dose: 12.5 mg/kg/injection, vehicle: Klucel (hydroxypropylcellulose) (HPC)
[2] = dose: 25.0 mg/kg/injection, vehicle: saline with Tween-80
[3] = dose: 50.0 mg/kg/injection, vehicle: saline with Tween-80
[4] = dose: 100.0 mg/kg/injection, vehicle: saline with Tween-80
[5] = dose: 200.0 mg/kg/injection, vehicle: saline with Tween-80

With `COC1C(O)CC(OC2CC(OC3CC(O[C@@H]4C(=O)c5c(cc6cc(OC7CC(OC8CC(O)C(O)C(C)O8)C(O)C(C)O7)c(C)c(O)c6c5O)C[C@H]4[C@H](OC)C(=O)[C@@H](O)[C@@H](C)O)OC(C)C3O)OC(C)C2O)OC1C` (some centres not stated) the T/C (dose: 0.75 mg/kg/injection, vehicle: saline) was 104 % of control and the T/C (dose: 1.5 mg/kg/injection, vehicle: saline) was 53 % of control and 62 % of control.

In the case of `CCC[CH2][Sn]1([CH2]CCC)[O]C2C(CO)OC(n3ccc(N)nc3=O)C2[O]1` (configuration not stated), the T/C (dose: 3.13 mg/kg/injection, vehicle: Klucel (hydroxypropylcellulose) (HPC)) is reported as 107 % of control and 108 % of control, the T/C (dose: 6.25 mg/kg/injection, vehicle: Klucel (hydroxypropylcellulose) (HPC)) is reported as 197 % of control and the T/C [1] is reported as 77 % of control.

With `CCN(CC)CCCC(C)Nc1c2ccc(Cl)cc2nc2ccc(OC)cc12` (configuration not stated) the T/C [2] was 119 % of control, the T/C [3] was 99 % of control and the T/C [4] was 108 % of control.

In the case of `COC(OC(CO)C(O)S(=O)(=O)O)C(O)S(=O)(=O)O` (configuration not stated), the T/C (dose: 200.0 mg/kg/injection, vehicle: saline) is reported as 45 % of control, the T/C (dose: 200.0 mg/kg/injection, vehicle: suspension in saline) is reported as 89 % of control and the T/C (dose: 400.0 mg/kg/injection, vehicle: suspension in saline) is reported as 82 % of control. For the same compound, the T/C (dose: 800.0 mg/kg/injection, vehicle: suspension in saline) was 41 % of control.

`ClCC[N+]12CC[N+](CCCl)(CC1)C2` was tested, and the T/C (dose: 50.0 mg/kg/injection, vehicle: water) was 81 % of control, the T/C [4] was 103 % of control and the T/C (dose: 100.0 mg/kg/injection, vehicle: water) was 106 % of control. The T/C [5] was 72 % of control, the T/C (dose: 200.0 mg/kg/injection, vehicle: water) was 59 % of control and the T/C (dose: 400.0 mg/kg/injection, vehicle: saline with Tween-80) was 74 % of control. For the same compound, the T/C (dose: 400.0 mg/kg/injection, vehicle: water) was 48 % of control.

For `O=S(CCCl)CCCl`, the T/C (dose: 50.0 mg/kg/injection, vehicle: Klucel (hydroxypropylcellulose) (HPC)) was 61 % of control.

For `CC[C@]1(O)C[C@H]2CN(CCc3c([nH]c4ccccc34)[C@@](C(=O)OC)(c3cc4c(cc3OC)N(C=O)[C@H]3[C@@](O)(C(=O)OC)[C@H](OC(C)=O)[C@]5(CC)C=CCN6CC[C@]43[C@@H]65)C2)C1`, the T/C (dose: 0.25 mg/kg/injection, vehicle: saline) was 98 % of control and the T/C (dose: 0.5 mg/kg/injection, vehicle: saline) was 79 % of control.

In the case of `COC1C(C)OC(OC2CC(C)(O)Cc3cc4c(c(O)c32)C(=O)c2c(O)cc3c(c2C4=O)OC2OC3(C)C(O)C(N(C)C)C2O)C(OC)C1(C)OC` (configuration not stated), the T/C (dose: 2.5 mg/kg/injection, vehicle: Klucel (hydroxypropylcellulose) (HPC)) is reported as 69 % of control, the T/C (dose: 5.0 mg/kg/injection, vehicle: Klucel (hydroxypropylcellulose) (HPC)) is reported as 75 % of control and the T/C (dose: 10.0 mg/kg/injection, vehicle: Klucel (hydroxypropylcellulose) (HPC)) is reported as 56 % of control. For the same compound, the T/C (dose: 20.0 mg/kg/injection, vehicle: Klucel (hydroxypropylcellulose) (HPC)) was 38 % of control.

`[N-]=[N+]=CC(=O)CCC(N)C(=O)O` (configuration not stated) was tested, and the T/C (dose: 37.5 mg/kg/injection, vehicle: saline) was -87 % of control.

In the case of `CN(C)N=Nc1cccc(C(N)=O)c1`, the T/C [1] is reported as 98 % of control and the T/C (dose: 25.0 mg/kg/injection, vehicle: Klucel (hydroxypropylcellulose) (HPC)) is reported as 36 % of control.

For `OCC1OC(n2cnc3cncnc32)C(O)C1O` (configuration not stated), the T/C (dose: 25.0 mg/kg/injection, vehicle: saline) was 83 % of control.

In the case of `O=Cc1ccc(O)c(O)c1`, the T/C (dose: 12.5 mg/kg/injection, vehicle: saline with Tween-80) is reported as 91 % of control, the T/C [2] is reported as 107 % of control and the T/C [3] is reported as 114 % of control.

For `CC(=O)OCC1OC(n2cc(CBr)nn2)C(OC(C)=O)C(OC(C)=O)C1OC(C)=O` (configuration not stated), the T/C [2] was 169 % of control, the T/C [3] was 61 % of control and the T/C [4] was 107 % of control. The T/C [5] was 110 % of control.
